Assay [1] has as its system Rattus norvegicus. In words: In vivo antigoiter activity in rat. The assay is classed as functional.
The species entered for assay [2] is Rattus norvegicus. The experiment in a line: Displacement of radiolabelled L-T3 from thyroid hormone receptor in intact rat hepatic nuclei relative to T3.
For assay [3], the target named is T1, Thyroxine-binding globulin (Homo sapiens) (UniProt P05543).
T1 sequence (whole entry): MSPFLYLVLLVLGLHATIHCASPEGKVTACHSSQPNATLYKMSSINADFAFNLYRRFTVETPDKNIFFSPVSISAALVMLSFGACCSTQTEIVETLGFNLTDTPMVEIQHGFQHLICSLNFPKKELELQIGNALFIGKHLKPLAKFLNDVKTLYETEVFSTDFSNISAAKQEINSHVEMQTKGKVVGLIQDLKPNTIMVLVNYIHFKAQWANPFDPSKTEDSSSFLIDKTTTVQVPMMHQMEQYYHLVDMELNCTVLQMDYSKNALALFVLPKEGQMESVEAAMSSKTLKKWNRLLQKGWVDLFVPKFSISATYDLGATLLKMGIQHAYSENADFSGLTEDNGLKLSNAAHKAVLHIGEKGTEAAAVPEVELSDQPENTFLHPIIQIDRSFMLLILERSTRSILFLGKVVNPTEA
The experiment in a line: Binding affinity to thyroxine binding globulin (unknown origin) relative to T4.

The results in this text go back to ChEMBL document CHEMBL3272192, “Thyroxine analogues. 23. Quantitative structure-activity correlation studies of in vivo and in vitro thyromimetic activities” (1977).

For `Cc1cc(Oc2c(I)cc(CC(N)C(=O)O)cc2I)ccc1O` (configuration not stated), in the assay on Rattus norvegicus [1], the Activity came out at 14.47% and the “log(%)” value came out at 1.16. In addition, in the assay listed under Rattus norvegicus [2], the RBA came to 13.5% and the log(%) amounted to 1.13. For the same compound, in assay [3], the RBA came out at 0.28% and the log(%) was -0.553.

Regarding `NC(Cc1cc(I)c(Oc2ccc(O)cc2)c(I)c1)C(=O)O` (configuration not stated), in the assay on Rattus norvegicus [1], the Activity is 0.81% and the “log(%)” value was -0.092. In the assay listed under Rattus norvegicus [2], this compound returned an RBA of 0.3% and a log(%) of -0.523. In assay [3], this compound displayed an RBA of 0.07% and a log(%) of -1.16.

Consider `N[C@@H](Cc1cc(I)c(Oc2ccc(O)c(I)c2)c(I)c1)C(=O)O` [LIOTHYRONINE], for which, in the assay on Rattus norvegicus [1], the Activity was 100% and the “log(%)” value is reported as 2. In assay [3], this compound showed an RBA of 9% and a log(%) of 0.954.

Turning to `CC(C)(C)c1cc(Oc2c(I)cc(CC(N)C(=O)O)cc2I)ccc1O` (configuration not stated), the Activity with Rattus norvegicus [1] is recorded as 21.7%. Also, the figures for the “log(%)” value (with Rattus norvegicus [1]; in the assay filed under Rattus norvegicus [2]; in assay [3]) were 1.336, 1.59 and -0.174, respectively. Besides, the values for the RBA (in the assay filed under Rattus norvegicus [2]; in assay [3]) were 38.5% and 0.67%, respectively.

On to `CC(C)c1cc(Oc2c(I)cc(CC(N)C(=O)O)cc2I)ccc1O` (configuration not stated), for which, in the assay on Rattus norvegicus [1], the Activity is listed as 142.1% and the “log(%)” value was 2.153. In the assay filed under Rattus norvegicus [2], this compound gave an RBA of 100% and a log(%) of 2. In assay [3], the RBA worked out at 3.53% and the log(%) amounted to 0.548.

`NC(Cc1cc(I)c(Oc2ccc(O)c(-c3ccccc3)c2)c(I)c1)C(=O)O` (configuration not stated): in the assay with Rattus norvegicus [1], the Activity was determined as 2.03% and the “log(%)” value was determined as 0.308. In the assay listed under Rattus norvegicus [2], the RBA turned out to be 2% and the log(%) amounted to 0.301. Further, in assay [3], the RBA worked out at 0.04% and the log(%) was -1.4.

Regarding `CC(C)Cc1cc(Oc2c(I)cc(CC(N)C(=O)O)cc2I)ccc1O` (configuration not stated), in the assay with Rattus norvegicus [1], the Activity is listed as 7.74% and the “log(%)” value worked out at 0.889. In the assay listed under Rattus norvegicus [2], the RBA worked out at 20% and the log(%) turned out to be 1.3. Besides, in assay [3], the RBA turned out to be 0.1% and the log(%) was -1.

`CCc1cc(Oc2c(I)cc(CC(N)C(=O)O)cc2I)ccc1O` (configuration not stated): in the assay on Rattus norvegicus [1], the Activity came out at 40.8% and the “log(%)” value was 1.611. In the assay filed under Rattus norvegicus [2], this compound gave an RBA of 21% and a log(%) of 1.32. Besides, in assay [3], the RBA was determined as 1.59% and the log(%) amounted to 0.201.

Take `NC(Cc1cc(I)c(Oc2ccc(O)c(O)c2)c(I)c1)C(=O)O` (configuration not stated): in the assay on Rattus norvegicus [1], the Activity was found to be 0.27% and the “log(%)” value is recorded as -0.569. In assay [3], this compound showed an RBA of 0.06% and a log(%) of -1.22.

On to `Cc1cc(Oc2c(I)cc(CC(N)C(=O)O)cc2I)cc(C)c1O` (configuration not stated), for which, in the assay on Rattus norvegicus [1], the Activity came to 9.04% and the “log(%)” value came out at 0.956. In the assay filed under Rattus norvegicus [2], this compound showed an RBA of 6.2% and a log(%) of 0.792. In assay [3], the RBA worked out at 0.29% and the log(%) was -0.538.

Turning to `NC(Cc1cc(I)c(Oc2cc(I)c(O)c(I)c2)c(I)c1)C(=O)O` (configuration not stated) [THYROXINE], in the assay on Rattus norvegicus [1], the Activity turned out to be 18.1% and the “log(%)” value is listed as 1.258. In the assay filed under Rattus norvegicus [2], this compound returned an RBA of 12.5% and a log(%) of 1.1. In assay [3], this compound came in with an RBA of 100% and a log(%) of 2.
